From patent US9650390B2, “Water-soluble taxane derivatives and uses thereof” (priority 2014, dated 2017)

What was measured:
[1] = physiological saline
[2] = In vitro dissociation in blood plasma of rabbit; type: in vitro ADME, New Zealand white rabbits; details: fresh New Zealand white rabbit plasma, 37° C.
Protocol: The obtained water soluble taxane derivatives of the following formulae were formulated as 0.2 mg/ml aqueous solutions. […]

[3] = In vitro dissociation in blood plasma of rat; type: in vitro ADME, SD rats; details: fresh SD rat plasma, 37° C.; for Sampling time/Dissociation percent (%) 2 min: 2 min incubation; for Sampling time/Dissociation percent (%) 5 min: 5 min incubation; for Sampling time/Dissociation percent (%) 10 min: 10 min incubation
Protocol: The obtained water soluble taxane derivatives of the following formulae were formulated as 0.2 mg/ml aqueous solutions. […] After 2 min, 5 min and 10 min of incubation, 0.2 ml of solutions were respectively taken from each of the samples, and added to acetonitrile (0.4 ml) cooled to −20° C. for precipitation of protein.

[4] = tested on: human ovarian cancer SK-OV-3; details: 16 mg/kg, D0-4 IV
From the text: Purpose: to evaluate and compare the inhibitory activity of the water soluble paclitaxel derivatives, paclitaxel and Abraxane® on subcutaneously xenografted tumor of human ovarian cancer SK-OV-3 in nude mice.
Human ovarian cancer SK-OV-3 cells were subcutaneously inoculated to nude mice. After the tumor volume reached 100-150 mm^3, the animals were randomly divided into groups (D0), and administered with the water soluble paclitaxel derivatives of the following formula, paclitaxel, and Abraxane®, respectively once per day for 5 days. The tumor volume was measured 2-3 times per week, the animals were weighed and the data were recorded until day 22 (D22) after grouping.
The tumor volume (V) was calculated according to the equation: V=½×a×b^2, wherein a and b represent the length and the width, respectively.
T/C (%)=(T−T0)/(C−C0)×100, wherein T and C represent the tumor volume at the end of the experiment, and T0 and C0 represent the tumor volume at the beginning of the experiment.

[5] = In vivo metabolic test of the water soluble paclitaxel derivatives in rats; details: SD rats, 5 mg/kg intravenous, 5 min after administration, LC-MS
Protocol: After 5 min of administration, 0.3 ml of venous blood was taken from the retrobulbar venous plexus of the rats, placed in heparinized tubes, and centrifuged at 11.000 rpm for 5 min. Blood plasma was separated, and the concentrations of the compounds in the blood plasma were determined by liquid chromatography-mass spectrometry.

[6] = D22, SK-OV-3 xenograft in nude mice

SMILES	Solubility [1]	Sampling time/Dissociation percent (%) 2 min [2]	Sampling time/Dissociation percent (%) 5 min [2]	Sampling time/Dissociation percent (%) 10 min [2]	Sampling time/Dissociation percent (%) 2 min [3]	Sampling time/Dissociation percent (%) 5 min [3]	Sampling time/Dissociation percent (%) 10 min [3]	Body weight change (%) D4 ([4]; D4, nude mice)	T/C (%) D22 [4, 6]	Tumor volume (mm^3) (D22) [4, 6]	Tumor inhibitory percent (%) D22 ([4]; D22, SK-OV-3 xenograft in nude mice, P = 0.000 vs control)	Tumor volume (mm^3) (D0) ([4]; baseline at grouping (D0), SK-OV-3 xenograft in nude mice)	mean concentration of paclitaxel in the blood plasma [5]
CC(=O)OC1C(=O)C23CC2CC2OCC2(OC(C)=O)C3C(OC(=O)c2ccccc2)C2(O)CC(OC(=O)C(OC(=O)C(F)CC(C)N(C)C)C(NC(=O)OC(C)(C)C)c3ccccc3)C(C)=C1C2(C)C.CS(=O)(=O)O [Compound 16, 2′-O-[4-N,N-dimethylamino-2(R)-fluorovaleryl]larotaxel methanesulfonate]	11100 µg/mL	63.2%	94.1%	100%	60.2%	92.1%	100%	–	–	–	–	–	–
CC(=O)OC12COC1CCC1(C)C3OC(CN(C)C)OC3C3=C(C)C(OC(=O)C(OC(=O)C(F)CC(C)N(C)C)C(NC(=O)OC(C)(C)C)c4ncccc4F)CC(O)(C(OC(=O)c4ccccc4)C12)C3(C)C.CS(=O)(=O)O [Compound 17, 2′-O-[4-N,N-dimethylamino-2(R)-fluorovaleryl]tesetaxel methanesulfonate]	12300 µg/mL	62.7%	93.4%	100%	59.3%	93.5%	100%	–	–	–	–	–	–
CCN(C)C(C)C[C@H](C(=O)O[C@@H](C(=O)O[C@H]1C[C@@]2(O)[C@@H](OC(=O)c3ccccc3)[C@@H]3[C@]4(OC(C)=O)CO[C@@H]4C[C@H](O)[C@@]3(C)C(=O)[C@H](O)C(=C1C)C2(C)C)[C@@H](NC(=O)OC(C)(C)C)c1ccccc1)C(C)(F)F.CS(=O)(=O)O (stereo partly drawn) [Compound C12, 2′-O-[4-N-methyl-N-ethylamino-2(R)-2-difluoroethylvaleryl]docetaxel methanesulfonate]	11300 µg/mL	44.6%	72.1%	89.6%	42.8%	74.8%	88.4%	–	–	–	–	–	–
CC(=O)O[C@@]12CO[C@@H]1C[C@H](O)[C@@]1(C)C(=O)[C@H](O)C3=C(C)[C@@H](OC(=O)[C@H](OC(=O)[C@H](F)CC(C)N(C)C)[C@@H](NC(=O)OC(C)(C)C)c4ccccc4)C[C@@](O)([C@@H](OC(=O)c4ccccc4)[C@H]21)C3(C)C.Cl (stereo partly drawn) [Compound C13, 2′-O-[4-N,N-dimethylamino-2(R)-fluorovaleryl]docetaxel hydrochloride]	2300 µg/mL	46.2%	78.9%	93.4%	44.8%	84.8%	92.7%	–	–	–	–	–	–
CC(=O)O[C@H]1C(=O)[C@]23C[C@H]2C[C@H]2OC[C@@]2(OC(C)=O)[C@H]3[C@H](OC(=O)c2ccccc2)[C@]2(O)C[C@H](OC(=O)[C@H](OC(=O)[C@H](F)CC(C)N(C)C)[C@@H](NC(=O)OC(C)(C)C)c3ccccc3)C(C)=C1C2(C)C.Cl (stereo partly drawn) [Compound C16, 2′-O-[4-N,N-dimethylamino-2(R)-fluorovaleryl]larotaxel hydrochloride]	800 µg/mL	68.2%	94.4%	100%	61.1%	93.8%	100%	–	–	–	–	–	–
CC(=O)O[C@@]12CO[C@@H]1CC[C@@]1(C)[C@@H]3O[C@H](CN(C)C)O[C@@H]3C3=C(C)[C@@H](OC(=O)[C@H](OC(=O)[C@H](F)CC(C)N(C)C)[C@@H](NC(=O)OC(C)(C)C)c4ncccc4F)C[C@@](O)([C@@H](OC(=O)c4ccccc4)[C@@H]12)C3(C)C.Cl (stereo partly drawn) [Compound C17, 2′-O-[4-N,N-dimethylamino-2(R)-fluorovaleryl]tesetaxel hydrochloride]	1000 µg/mL	69.7%	96.8%	100%	60.7%	95.5%	100%	–	–	–	–	–	–
CC(=O)O[C@H]1C(=O)[C@@]2(C)[C@H]([C@H](OC(=O)c3ccccc3)[C@]3(O)C[C@H](OC(=O)[C@H](O)[C@@H](NC(=O)c4ccccc4)c4ccccc4)C(C)=C1C3(C)C)[C@]1(OC(C)=O)CO[C@@H]1C[C@@H]2O [paclitaxel, reference compound]	–	–	–	–	–	–	–	−4.8%	−60%	53.7 ± 11.2 mm^3	160%	134.6 ± 19.7 mm^3	1793 ng/mL
